Data from paper PMC2229644 (The Journal of General Physiology, 1999).

Experiments:
[1] = system: MaxiK-channel (large conductance Ca-activated K channel); details: cited from earlier work
potassium channels = details: cited from earlier work
[2] = target: Shaker H4 Δ(6-46) K channel (inactivation-removed, Shaker IR) (Drosophila melanogaster, UniProt P08510, DEL6-46); assay type: cell-based
[3] = system: Shaker K channel, inactivation-removed; details: cited from earlier work

Shaker H4 Δ(6-46) K channel (inactivation-removed, Shaker IR), sequence (P08510 1-655 with tags or gaps DEL6-46): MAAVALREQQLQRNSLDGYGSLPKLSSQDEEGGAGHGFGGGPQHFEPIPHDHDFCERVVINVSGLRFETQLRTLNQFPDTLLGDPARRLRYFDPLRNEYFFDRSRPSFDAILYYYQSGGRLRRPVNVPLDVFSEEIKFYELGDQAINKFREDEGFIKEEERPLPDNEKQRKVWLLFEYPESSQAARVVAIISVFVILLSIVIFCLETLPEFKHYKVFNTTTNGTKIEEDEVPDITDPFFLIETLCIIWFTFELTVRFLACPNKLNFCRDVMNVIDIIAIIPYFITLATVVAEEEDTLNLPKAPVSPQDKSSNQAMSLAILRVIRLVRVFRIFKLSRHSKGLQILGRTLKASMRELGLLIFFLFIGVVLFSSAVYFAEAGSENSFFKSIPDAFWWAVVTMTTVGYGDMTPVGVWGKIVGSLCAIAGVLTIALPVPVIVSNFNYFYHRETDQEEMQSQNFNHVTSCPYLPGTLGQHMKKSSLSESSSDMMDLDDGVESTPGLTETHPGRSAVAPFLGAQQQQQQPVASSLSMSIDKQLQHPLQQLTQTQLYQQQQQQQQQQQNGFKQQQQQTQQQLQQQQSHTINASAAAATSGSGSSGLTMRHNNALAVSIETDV

Row | Substance | effective valence zδ in absence of internally present permeant cations [1] | association rate constant, k on (potassium channels) [M⁻¹ s⁻¹] | effect on apparent association rate of κ-PVIIA [2] | effect on dissociation rate of κ-PVIIA [2] | underestimation of κ-PVIIA k on by 1 mM TEA^+ [2] [%] | effect of TEA^+ on CTX association and dissociation rates [1] | effect of external TEA^+ on extent of κ-PVIIA blockade [3]
1 | charybdotoxin [CTX] | zδ vanishes | 6.1e+07 | – | – | – | – | –
2 | tetraethylammonium [TEA^+] | – | – | decreases the apparent association rate | little effect on the dissociation rate | ~10 | only reduces the association rate of CTX | reduces the extent of the blockade
